# Measured values reported in US6518243B1, “Desleucyl glycopeptide antibiotics and methods of making same” (Trustees of Princeton University, priority 1999, dated 2003).
# Tested on: E. faecalis (CL 4877)
# Assay: Zone of inhibition screen, 96 well agar array format
# Format: cell-based
# Set-up: scale not given here
# Settings: zone of inhibition relative to 1 mg/ml stock solution of p-chlorobiphenylvancomycin
# Protocol: The antibacterial activity of each of the compounds against the bacterial strains E. faceium (ATCC 49624), S. epidermidis (ATCC 12228), S. aureus (ATCC 29213), E. faecalis (CL 4877) and E. faecalis (ATCC 292121) was tested. Each of the compounds was screened in a 96 will agar array format.
row,SMILES,"zone score, E. faecalis CL 4877"
1,CC(C)C(NC(=O)CN)C(=O)NC1C(=O)NC(CC(N)=O)C(=O)NC2C(=O)NC3C(=O)NC(C(=O)NC(C(=O)O)c4cc(O)cc(O)c4-c4cc3ccc4O)C(O)c3ccc(c(Cl)c3)Oc3cc2cc(c3OC2OC(CO)C(O)C(O)C2OC2CC(C)(NCc3ccc(-c4ccc(Cl)cc4)cc3)C(O)C(C)O2)Oc2ccc(cc2Cl)C1O (stereo not shown) [Compound 70],2
2,CC1OC(OC2C(Oc3c4cc5cc3Oc3ccc(cc3Cl)C(O)C3NC(=O)C(NC(=O)C5NC(=O)C(CC(N)=O)NC(=O)C(NC(=O)C(N)Cc5c[nH]cn5)C(O)c5ccc(c(Cl)c5)O4)c4ccc(O)c(c4)-c4c(O)cc(O)cc4C(C(=O)O)NC3=O)OC(CO)C(O)C2O)CC(C)(NCc2ccc(-c3ccc(Cl)cc3)cc2)C1O (stereo not shown) [Compound 71],2
3,C=CCOC(=O)NCC(N)C(=O)NC1C(=O)NC(CC(N)=O)C(=O)NC2C(=O)NC3C(=O)NC(C(=O)NC(C(=O)O)c4cc(O)cc(O)c4-c4cc3ccc4O)C(O)c3ccc(c(Cl)c3)Oc3cc2cc(c3OC2OC(CO)C(O)C(O)C2OC2CC(C)(NCc3ccc(-c4ccc(Cl)cc4)cc3)C(O)C(C)O2)Oc2ccc(cc2Cl)C1O (stereo not shown) [Compound 92],2
4,CC1OC(OC2C(Oc3c4cc5cc3Oc3ccc(cc3Cl)C(O)C3NC(=O)C(NC(=O)C5NC(=O)C(CC(N)=O)NC(=O)C(NC(=O)C5CC(=O)N5)C(O)c5ccc(c(Cl)c5)O4)c4ccc(O)c(c4)-c4c(O)cc(O)cc4C(C(=O)O)NC3=O)OC(CO)C(O)C2O)CC(C)(NCc2ccc(-c3ccc(Cl)cc3)cc2)C1O (stereo not shown) [Compound 96],2
5,COCCOCCOCC(=O)NC1C(=O)NC(CC(N)=O)C(=O)NC2C(=O)NC3C(=O)NC(C(=O)NC(C(=O)O)c4cc(O)cc(O)c4-c4cc3ccc4O)C(O)c3ccc(c(Cl)c3)Oc3cc2cc(c3OC2OC(CO)C(O)C(O)C2OC2CC(C)(NCc3ccc(-c4ccc(Cl)cc4)cc3)C(O)C(C)O2)Oc2ccc(cc2Cl)C1O (stereo not shown) [Compound 101],2
6,C=C(NC(C)=O)C(=O)NC1C(=O)NC(CC(N)=O)C(=O)NC2C(=O)NC3C(=O)NC(C(=O)NC(C(=O)O)c4cc(O)cc(O)c4-c4cc3ccc4O)C(O)c3ccc(c(Cl)c3)Oc3cc2cc(c3OC2OC(CO)C(O)C(O)C2OC2CC(C)(NCc3ccc(-c4ccc(Cl)cc4)cc3)C(O)C(C)O2)Oc2ccc(cc2Cl)C1O (stereo not shown) [Compound 102],2
7,CC1OC(OC2C(Oc3c4cc5cc3Oc3ccc(cc3Cl)C(O)C3NC(=O)C(NC(=O)C5NC(=O)C(CC(N)=O)NC(=O)C(NC(=O)c5cnccn5)C(O)c5ccc(c(Cl)c5)O4)c4ccc(O)c(c4)-c4c(O)cc(O)cc4C(C(=O)O)NC3=O)OC(CO)C(O)C2O)CC(C)(NCc2ccc(-c3ccc(Cl)cc3)cc2)C1O (stereo not shown) [Compound 103],2
8,CC1OC(OC2C(Oc3c4cc5cc3Oc3ccc(cc3Cl)C(O)C3NC(=O)C(NC(=O)C5NC(=O)C(CC(N)=O)NC(=O)C(NC(=O)c5nccnc5N)C(O)c5ccc(c(Cl)c5)O4)c4ccc(O)c(c4)-c4c(O)cc(O)cc4C(C(=O)O)NC3=O)OC(CO)C(O)C2O)CC(C)(NCc2ccc(-c3ccc(Cl)cc3)cc2)C1O (stereo not shown) [Compound 105],2
9,CC(=O)NC(CCCNC(=N)N)C(=O)NC1C(=O)NC(CC(N)=O)C(=O)NC2C(=O)NC3C(=O)NC(C(=O)NC(C(=O)O)c4cc(O)cc(O)c4-c4cc3ccc4O)C(O)c3ccc(c(Cl)c3)Oc3cc2cc(c3OC2OC(CO)C(O)C(O)C2OC2CC(C)(NCc3ccc(-c4ccc(Cl)cc4)cc3)C(O)C(C)O2)Oc2ccc(cc2Cl)C1O (stereo not shown) [Compound 111],2
10,CC(=O)NC(CC(N)=O)C(=O)NC1C(=O)NC(CC(N)=O)C(=O)NC2C(=O)NC3C(=O)NC(C(=O)NC(C(=O)O)c4cc(O)cc(O)c4-c4cc3ccc4O)C(O)c3ccc(c(Cl)c3)Oc3cc2cc(c3OC2OC(CO)C(O)C(O)C2OC2CC(C)(NCc3ccc(-c4ccc(Cl)cc4)cc3)C(O)C(C)O2)Oc2ccc(cc2Cl)C1O (stereo not shown) [Compound 113],2
11,CC(=O)NC(C(=O)NC1C(=O)NC(CC(N)=O)C(=O)NC2C(=O)NC3C(=O)NC(C(=O)NC(C(=O)O)c4cc(O)cc(O)c4-c4cc3ccc4O)C(O)c3ccc(c(Cl)c3)Oc3cc2cc(c3OC2OC(CO)C(O)C(O)C2OC2CC(C)(NCc3ccc(-c4ccc(Cl)cc4)cc3)C(O)C(C)O2)Oc2ccc(cc2Cl)C1O)C(C)O (stereo not shown) [Compound 125],2
12,CC1OC(OC2C(Oc3c4cc5cc3Oc3ccc(cc3Cl)C(O)C3NC(=O)C(NC(=O)C5NC(=O)C(CC(N)=O)NC(=O)C(NC(=O)C(NC(N)=O)NC(N)=O)C(O)c5ccc(c(Cl)c5)O4)c4ccc(O)c(c4)-c4c(O)cc(O)cc4C(C(=O)O)NC3=O)OC(CO)C(O)C2O)CC(C)(NCc2ccc(-c3ccc(Cl)cc3)cc2)C1O (stereo not shown) [Compound 126],2
13,CC1OC(OC2C(Oc3c4cc5cc3Oc3ccc(cc3Cl)C(O)C(NC(=O)C(O)C(O)C(O)CO)C(=O)NC(CC(N)=O)C(=O)NC5C(=O)NC3C(=O)NC(C(=O)NC(C(=O)O)c5cc(O)cc(O)c5-c5cc3ccc5O)C(O)c3ccc(c(Cl)c3)O4)OC(CO)C(O)C2O)CC(C)(NCc2ccc(-c3ccc(Cl)cc3)cc2)C1O (stereo not shown) [Compound 127],2
14,CC1OC(OC2C(Oc3c4cc5cc3Oc3ccc(cc3Cl)C(O)C3NC(=O)C(NC(=O)C5NC(=O)C(CC(N)=O)NC(=O)C(NC(=O)C(CC(N)=O)NC(=O)OC(C)(C)C)C(O)c5ccc(c(Cl)c5)O4)c4ccc(O)c(c4)-c4c(O)cc(O)cc4C(C(=O)O)NC3=O)OC(CO)C(O)C2O)CC(C)(NCc2ccc(-c3ccc(Cl)cc3)cc2)C1O (stereo not shown) [Compound 133],2
15,CC1OC(OC2C(Oc3c4cc5cc3Oc3ccc(cc3Cl)C(O)C3NC(=O)C(NC(=O)C5NC(=O)C(CC(N)=O)NC(=O)C(NC(=O)C(CCCNC(=N)N)NC(=O)CNC(=O)OC(C)(C)C)C(O)c5ccc(c(Cl)c5)O4)c4ccc(O)c(c4)-c4c(O)cc(O)cc4C(C(=O)O)NC3=O)OC(CO)C(O)C2O)CC(C)(NCc2ccc(-c3ccc(Cl)cc3)cc2)C1O (stereo not shown) [Compound 138],2
16,CC1OC(OC2C(Oc3c4cc5cc3Oc3ccc(cc3Cl)C(O)C3NC(=O)C(NC(=O)C5NC(=O)C(CC(N)=O)NC(=O)C(NC(=O)CNC(=O)CNC(=O)OC(C)(C)C)C(O)c5ccc(c(Cl)c5)O4)c4ccc(O)c(c4)-c4c(O)cc(O)cc4C(C(=O)O)NC3=O)OC(CO)C(O)C2O)CC(C)(NCc2ccc(-c3ccc(Cl)cc3)cc2)C1O (stereo not shown) [Compound 140],2
17,CC1OC(OC2C(Oc3c4cc5cc3Oc3ccc(cc3Cl)C(O)C3NC(=O)C(NC(=O)C5NC(=O)C(CC(N)=O)NC(=O)C(NC(=O)CC5OCC6CN7CC8C9=CC(=O)C(=O)C([N+](=O)[O-])=C9NC8C5C6CC7C)C(O)c5ccc(c(Cl)c5)O4)c4ccc(O)c(c4)-c4c(O)cc(O)cc4C(C(=O)O)NC3=O)OC(CO)C(O)C2O)CC(C)(NCc2ccc(-c3ccc(Cl)cc3)cc2)C1O (stereo not shown) [Compound 144],2
18,CC1OC(OC2C(Oc3c4cc5cc3Oc3ccc(cc3Cl)C(O)C3NC(=O)C(NC(=O)C5NC(=O)C(CC(N)=O)NC(=O)C(NC(=O)CN(C)C(=N)N)C(O)c5ccc(c(Cl)c5)O4)c4ccc(O)c(c4)-c4c(O)cc(O)cc4C(C(=O)O)NC3=O)OC(CO)C(O)C2O)CC(C)(NCc2ccc(-c3ccc(Cl)cc3)cc2)C1O (stereo not shown) [Compound 145],2
19,CC1OC(OC2C(Oc3c4cc5cc3Oc3ccc(cc3Cl)C(O)C(NC(=O)C3(O)CC(O)C(O)C(O)C3)C(=O)NC(CC(N)=O)C(=O)NC5C(=O)NC3C(=O)NC(C(=O)NC(C(=O)O)c5cc(O)cc(O)c5-c5cc3ccc5O)C(O)c3ccc(c(Cl)c3)O4)OC(CO)C(O)C2O)CC(C)(NCc2ccc(-c3ccc(Cl)cc3)cc2)C1O (stereo not shown) [Compound 146],2
20,CC1OC(OC2C(Oc3c4cc5cc3Oc3ccc(cc3Cl)C(O)C(NC(=O)C(O)C3OC(=O)C(O)C3O)C(=O)NC(CC(N)=O)C(=O)NC5C(=O)NC3C(=O)NC(C(=O)NC(C(=O)O)c5cc(O)cc(O)c5-c5cc3ccc5O)C(O)c3ccc(c(Cl)c3)O4)OC(CO)C(O)C2O)CC(C)(NCc2ccc(-c3ccc(Cl)cc3)cc2)C1O (stereo not shown) [Compound 155],2
21,CC1OC(OC2C(Oc3c4cc5cc3Oc3ccc(cc3Cl)C(O)C3NC(=O)C(NC(=O)C5NC(=O)C(CC(N)=O)NC(=O)C(NC(=O)C=O)C(O)c5ccc(c(Cl)c5)O4)c4ccc(O)c(c4)-c4c(O)cc(O)cc4C(C(=O)O)NC3=O)OC(CO)C(O)C2O)CC(C)(NCc2ccc(-c3ccc(Cl)cc3)cc2)C1O (stereo not shown) [Compound 159],2
22,CC1OC(OC2C(Oc3c4cc5cc3Oc3ccc(cc3Cl)[C@@H](O)[C@@H](NC(=O)CNC(=O)CNC(=O)CNC(=O)c3ccccc3)C(=O)N[C@@H](CC(N)=O)C(=O)N[C@H]5C(=O)NC3C(=O)N[C@H](C(=O)N[C@@H](C(=O)O)c5cc(O)cc(O)c5-c5cc3ccc5O)[C@H](O)c3ccc(c(Cl)c3)O4)OC(CO)C(O)C2O)CC(C)(NCc2ccc(-c3ccc(Cl)cc3)cc2)C1O (stereo partly shown) [Compound 161],2
23,CC1OC(OC2C(Oc3c4cc5cc3Oc3ccc(cc3Cl)[C@@H](O)[C@@H](NC(=O)CNC(N)=O)C(=O)N[C@@H](CC(N)=O)C(=O)N[C@H]5C(=O)NC3C(=O)N[C@H](C(=O)N[C@@H](C(=O)O)c5cc(O)cc(O)c5-c5cc3ccc5O)[C@H](O)c3ccc(c(Cl)c3)O4)OC(CO)C(O)C2O)CC(C)(NCc2ccc(-c3ccc(Cl)cc3)cc2)C1O (stereo partly shown) [Compound 162],2
24,CC1OC(OC2C(Oc3c4cc5cc3Oc3ccc(cc3Cl)[C@@H](O)[C@@H](NC(=O)[C@H](O)CCCNC(=N)N)C(=O)N[C@@H](CC(N)=O)C(=O)N[C@H]5C(=O)NC3C(=O)N[C@H](C(=O)N[C@@H](C(=O)O)c5cc(O)cc(O)c5-c5cc3ccc5O)[C@H](O)c3ccc(c(Cl)c3)O4)OC(CO)C(O)C2O)CC(C)(NCc2ccc(-c3ccc(Cl)cc3)cc2)C1O (stereo partly shown) [Compound 165],2
25,CC1OC(OC2C(Oc3c4cc5cc3Oc3ccc(cc3Cl)[C@@H](O)[C@@H](NC(=O)[C@H]3CC(=O)NC(=O)N3)C(=O)N[C@@H](CC(N)=O)C(=O)N[C@H]5C(=O)NC3C(=O)N[C@H](C(=O)N[C@@H](C(=O)O)c5cc(O)cc(O)c5-c5cc3ccc5O)[C@H](O)c3ccc(c(Cl)c3)O4)OC(CO)C(O)C2O)CC(C)(NCc2ccc(-c3ccc(Cl)cc3)cc2)C1O (stereo partly shown) [Compound 168],2
